From patent US9624234B2, “Heterocyclic compounds and methods for their use” (Novartis AG, priority 2012, dated 2017)

What follows are compounds tested against AT2 receptor (Homo sapiens (Human), UniProt P50052) (assay: AT2 receptor binding ([125I]-CGP42112A radioligand, HEK293/AT2 receptor membranes)). Settings: HEK293/AT2 receptor transient transfected cell membranes, RT 1.5 hrs.
Method: • 1. Trypsin-EDTA (for preparation of 100 mL) • Trypsin 0.25 g • 2% EDTA 2 mL • PBS 98 mL • Dissolve trypsin in 2% EDTA and PBS completely; sterilize the solution by passing through a […] membrane filter; store at 4° C. • 2. DMEM medium (for preparation of 1 L) • The powder was dissolved into 950 mL of distilled water with gentle stirring until the solution becomes clear. • Add NaHCO3 1.176 g for DMEM medium. • Adjust pH of medium to 0.2-0.3 below final working pH using 1 M NaOH or 1 M HCl. Add slowly with stirring. • Dilute to 1 liter with ddH2O. • Sterilize the medium immediately by filtration. • Store at 4° C. • 3. TE buffer • 20 mM Tris-HCl, pH 7.4, • 5 mM EDTA • 4. Binding Assay Buffer • 50 mM Hepes, pH 7.4 • 5 mM MgCl2 • 1 mM CaCl2 • 0.2% BSA • 5. Wash Buffer • 50 mM Hepes, pH 7.4 Procedures for HEK293/AT2 Receptor Transient Cell Transfection • Cells were plated into 150 mm dish at 50% density for transient transfection. Cells were ready for transfection after overnight incubation (the confluence reaches around 80%). • 75 μL Lipofectamine™2000 diluted in 6.25 mL OptiMEM I Reduced Serum Medium, was mixed gently, and incubated at room temperature for 5 minutes. 50 μg expression plasmid DNA diluted in 6.25 mL OptiMEM I Reduced Serum Medium without serum was mixed gently. • After the 5 minute incubation, the diluted DNA was combined with the diluted Lipofectamine™2000 (total volume is 12.5 mL). The mixture was mixed gently and incubated for 30 minutes at room temperature to allow the DNA-Lipofectamine™2000 complexes to form. • The 12.5 mL DNA-Lipofectamine™2000 complexes were added into the 150 mm dish and mixed gently by rocking the dish back and forth. • The cells were incubated at 37° C. with 5% CO2 for 48 hours. • Cells were collected and stored frozen at −80° C. Procedures for HEK293/AT2 Receptor Cell Membrane Preparation • Frozen HEK293/AT2 receptor (transient transfected) cells were homogenized in ice cold TE buffer for 10 s. • The homogenate was centrifuged at 25,000 g for 30 minutes. • The pellet was resuspended in ice cold tissue buffer. • Protein concentrations were determined using Bradford assay method with BSA as standard. • The membrane protein was frozen under −80° C. Compound Preparation
Solutions of all compounds were prepared by microplate liquid handling equipment such as Janus or Precision 2000. Compounds, dissolved in DMSO were stored in a Freezer. Compounds were prepared from 30 mM in 100% DMSO.
Step 1: Dose Plate Preparation (96 Well Plate)
• Add the 3 μL [30 mM] compound stock to column 1 on the plate. • Add 15 μL of 100% DMSO to column 1. • Add 10.81 μL of 100% DMSO to column 2-12. • Transfer 5 μL from column 1 into column 2 (half log dilution). • Transfer 5 μL from column 2 into column 3 (half log dilution). • Transfer 5 μL from column 3 into column 4 (half log dilution). • Transfer 5 μL from column 4 into column 5 (half log dilution). • Transfer 5 μL from column 5 into column 6 (half log dilution). • Transfer 5 μL from column 6 into column 7 (half log dilution). • Transfer 5 μL from column 7 into column 8 (half log dilution). • Transfer 5 μL from column 8 into column 9 (half log dilution). • Transfer 5 μL from column 9 into column 10 (half log dilution) • Transfer 5 μL from column 10 into column 11 (half log dilution) • Transfer 5 μL from column 11 into column 12 (half log dilution). All the compounds were diluted using Precision 2000 microplate liquid handling equipment. The top concentration of compound was 5 mM with 100% DMSO. Step 2: Working Plate Preparation (96 Well Plate) • Compounds were diluted 50-fold with buffer. • 49 μL buffer was added to the well of 96 well plate. • 1 μL compound solution from dose plate was transferred to the corresponding well of working plate. • The top concentration of compound was 100 μM with 2% DMSO. Step 3: Assay Plate Preparation (96 Well Plate)
15 μL of compound solution was transferred from each well of working plate to the well of assay plate by Janus.

Chain of AT2 receptor (P50052 whole entry, species assumed): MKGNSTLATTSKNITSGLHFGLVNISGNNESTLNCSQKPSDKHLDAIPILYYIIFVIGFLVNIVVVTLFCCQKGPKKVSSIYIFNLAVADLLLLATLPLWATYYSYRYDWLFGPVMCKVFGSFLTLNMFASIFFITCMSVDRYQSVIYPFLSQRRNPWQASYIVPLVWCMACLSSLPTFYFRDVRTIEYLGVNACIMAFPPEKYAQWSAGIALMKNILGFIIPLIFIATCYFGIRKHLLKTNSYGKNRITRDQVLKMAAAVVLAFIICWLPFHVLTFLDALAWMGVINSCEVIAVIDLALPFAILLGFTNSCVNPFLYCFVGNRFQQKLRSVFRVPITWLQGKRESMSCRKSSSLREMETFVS

First: CC#CCN(C)[C@H]1CCN(C(=O)C(c2ccccc2)c2ccccc2)[C@H](C(=O)O)C1 [Compound 43]
Second: CC#CCN(C)[C@@H]1CCN(C(=O)C(c2ccccc2)c2ccccc2)[C@H](C(=O)O)C1 [Compound 42]
The IC50 of the first is 2.4-fold higher: 2050 nM for the first, 852 nM for the second.

Compared with `O=C(O)[C@@H]1C[C@@H](N2CCC[C@H](c3ccccc3)C2)CCN1C(=O)C(c1ccccc1)c1ccccc1` [Compound 56, (2′S,3R,4′R)-1-(2,2-diphenylacetyl)-3-phenyl-[1,4′-bipiperidine]-2′-carboxylic acid], `O=C(O)[C@@H]1C[C@H](N2CCC[C@@H](c3ccccc3)C2)CCN1C(=O)C(c1ccccc1)c1ccccc1` [Compound 57, (2′S,3S,4′R)-1′-(2,2-diphenylacetyl)-3-phenyl-[1,4′-bipiperidine]-2′-carboxylic acid] is 13-fold higher in IC50: 111 nM for the first, 1440 nM for the second.

First: CN(CCc1ccccc1)[C@@H]1CCN(C(=O)C(c2ccccc2)c2ccccc2)[C@H](C(=O)O)C1 [Compound 34, (2S,4R)-1-(2,2-diphenylacetyl)-4-(methyl(3-phenethyl)amino)piperidine-2-carboxylic acid]
Second: CN(CCc1ccccc1)[C@H]1CCN(C(=O)C(c2ccccc2)c2ccccc2)[C@H](C(=O)O)C1 [Compound 35, (2S,4S)-1-(2,2-diphenylacetyl)-4-(methyl(3-phenethyl)amino)piperidine-2-carboxylic acid]
The IC50 of the first is 9.1-fold higher: 918 nM for the first, 101 nM for the second.

Going from `O=C(O)[C@@H]1C[C@H](N2CCC[C@H](c3ccccc3)C2)CCN1C(=O)C(c1ccccc1)c1ccccc1` [Compound 55, (2′S,3R,4′R)-1′-(2,2-diphenylacetyl)-3-phenyl-[1,4′-bipiperidine]-2′-carboxylic acid] to `O=C(O)[C@@H]1C[C@@H](N2CCC[C@@H](c3ccccc3)C2)CCN1C(=O)C(c1ccccc1)c1ccccc1` [Compound 58, (2′S,3S,4′S)-1′-(2,2-diphenylacetyl)-3-phenyl-[1,4′-bipiperidine]-2′-carboxylic acid], the IC50 falls from 294 nM to 170 nM (1.7-fold). The second is the more potent here.

First: O=C(O)[C@@H]1C[C@H](OCCCc2ccccc2)CCN1C(=O)C(c1ccccc1)c1ccccc1 [Compound 41, (2S,4R)-1-(2,2-diphenylacetyl)-4-((3-phenylpropyl)oxy)piperidine-2-carboxylic acid]
Second: O=C(O)[C@@H]1CC(OCc2ccccc2)CCN1C(=O)C(c1ccccc1)c1ccccc1 (stereo partly drawn) [Compound 26, (2S)-4-(benzyloxy)-1-(2,2-diphenylacetyl)piperidine-2-carboxylic acid]
The IC50 of the first is 2.2-fold lower: 101 nM for the first, 218 nM for the second.

First: CN(CC#CC(C)(C)C)[C@@H]1CCN(C(=O)C(c2ccccc2)c2ccccc2)[C@H](C(=O)O)C1 [Compound 54, (2S,4R)-4-((4,4-dimethylpent-2-yn-1-yl)(methyl)amino)-1-(2,2-diphenylacetyl)piperidine-2-carboxylic acid]
Second: CN(CC#Cc1ccccc1)[C@@H]1CCN(C(=O)C(c2ccccc2)c2ccccc2)[C@H](C(=O)O)C1 [Compound 32]
The IC50 of the first is 3.2-fold lower: 33.9 nM for the first, 108 nM for the second. The first is the more potent here.

`CN(Cc1ccccc1)[C@@H]1CCN(C(=O)C(c2ccccc2)c2ccccc2)[C@H](C(=O)O)C1` [Compound 38, (2S,4R)-4-(benzyl(methyl)amino)-1-(2,2-diphenylacetyl)piperidine-2-carboxylic acid] and `CN(Cc1ccccc1)[C@H]1CCN(C(=O)C(c2ccccc2)c2ccccc2)[C@H](C(=O)O)C1` [Compound 39, (2S,4S)-4-(benzyl(methyl)amino)-1-(2,2-diphenylacetyl)piperidine-2-carboxylic acid] are within 1.5-fold of each other in IC50: 854 nM for the first, 648 nM for the second.

First: O=C(O)[C@@H]1C[C@H](OCC#Cc2ccccc2)CCN1C(=O)C(c1ccccc1)c1ccccc1 [Compound 40, (2S,4R)-1-(2,2-diphenylacetyl)-4-((3-phenylprop-2-yn-yl)oxy)piperidine-2-carboxylic acid]
Second: CN(CC#Cc1ccccc1)[C@H]1CCN(C(=O)C(c2ccccc2)c2ccccc2)[C@H](C(=O)O)C1 [Compound 33, (2S,4S)-1-(2,2-diphenylacetyl)-4-(methyl(3-phenylprop-2-yn-1yl)amino)piperidine-2-carboxylic acid]
The IC50 of the first is 12-fold lower: 228 nM for the first, 2710 nM for the second.

First: CN(CCCc1ccccc1)[C@@H]1CCN(C(=O)C(c2ccccc2)c2ccccc2)[C@H](C(=O)O)C1 [Compound 31, (2S,4R)-1-(2,2-diphenylacetyl)-4-(methyl(phenylpropyl)amino)piperidine-2-carboxylic acid]
Second: CN(CC#Cc1ccc(F)cc1)[C@@H]1CCN(C(=O)C(c2ccccc2)c2ccccc2)[C@H](C(=O)O)C1 [Compound 46]
The IC50 of the first is 91-fold higher: 5090 nM for the first, 55.9 nM for the second. The second is the more potent here.

Going from `CN(CC#Cc1ccc(F)cc1)[C@H]1CCN(C(=O)C(c2ccccc2)c2ccccc2)[C@H](C(=O)O)C1` [Compound 47, (2S,4S)-1-(2,2-diphenylacetyl)-4-((3-(4-fluorophenyl)prop-2-yn-1-yl)(methyl)amino)piperidine-2-carboxylic acid] to `O=C(O)[C@@H]1Cc2c(ccc3c2Oc2ccccc2O3)CN1C(=O)C(c1ccccc1)c1ccccc1` [Compound 9, (S)-3-(2,2-diphenylacetyl)-1,2,3,4-tetrahydrobenzo[5,6][1,4]dioxino[2,3-f]isoquinoline-2-carboxylic acid], the IC50 falls from 1040 nM to 159 nM (6.5-fold).

For `O=C(O)[C@@H]1Cc2c(c3ccccc3n2Cc2ccccc2)CN1C(=O)C(c1ccccc1)c1ccccc1` [Compound 1], the IC50 was 210 nM.
